Tests used:
Assay in all cases: relative viability (nuclei count vs DMSO), 5 days (fraction); higher = more cells survive
Tipifarnib = compound: Cn1cncc1[C@@](N)(c1ccc(Cl)cc1)c1ccc2c(c1)c(-c1cccc(Cl)c1)cc(=O)n2C [Tipifarnib]
In short: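 After an overnight hold at 37 °C, lung cancer cell lines in 1536-well plates were pinned with five library-drug doses (not always all listed), each √10 from the next, on vehicle-anchored plates. The cells stayed 5 days without fresh medium, then a one-step fix, permeabilisation and Hoechst stain preceded 4× imaging and MetaXpress nuclear counts. A plate passed only with control CV under 25% and at least one doubling. Viability is the median, over plates, of treated-well nuclei relative to vehicle-well nuclei.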

Tipifarnib + Trametinib = compound: Cn1cncc1[C@@](N)(c1ccc(Cl)cc1)c1ccc2c(c1)c(-c1cccc(Cl)c1)cc(=O)n2C [Tipifarnib] + CC(=O)Nc1cccc(-n2c(=O)n(C3CC3)c(=O)c3c(Nc4ccc(I)cc4F)n(C)c(=O)c(C)c32)c1 [Trametinib] (partner 0.02 µM)
In short: (§1)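 Each reported value is a median over duplicate plates. It expresses relative viability: treated-well nuclei count divided by vehicle-well nuclei count. Lung cancer cell lines in 1536-well plates were dosed by pin tool a day after seeding, alone with one drug or with a fixed anchor-drug dose plus five library-drug doses (not always all listed) in √10 steps, and nuclei were counted after 5 days.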

Tipifarnib + OSI-027 = compound: Cn1cncc1[C@@](N)(c1ccc(Cl)cc1)c1ccc2c(c1)c(-c1cccc(Cl)c1)cc(=O)n2C [Tipifarnib] + COc1cccc2cc(-c3nc([C@H]4CC[C@H](C(=O)O)CC4)n4ncnc(N)c34)[nH]c12 [OSI-027] (partner 0.5 µM)
In short: as §1

Tipifarnib + Phenformin = compound: Cn1cncc1[C@@](N)(c1ccc(Cl)cc1)c1ccc2c(c1)c(-c1cccc(Cl)c1)cc(=O)n2C [Tipifarnib] + N=C(N)NC(=N)NCCc1ccccc1 [Phenformin] (partner 250 µM)
In short: as §1

NCI-H2342
relative viability (Tipifarnib; 0.01 µM): 1.06 | relative viability (Tipifarnib; 0.03162 µM): 0.984 | relative viability (Tipifarnib; 0.1 µM): 0.749 | relative viability (Tipifarnib; 0.3162 µM): 0.807 | relative viability (Tipifarnib; 1 µM): 0.571 | relative viability (Tipifarnib + Trametinib; first compound 0.01 µM): 0.778 | relative viability (Tipifarnib + Trametinib; first compound 0.03162 µM): 0.968 | relative viability (Tipifarnib + Trametinib; first compound 0.1 µM): 0.803 | relative viability (Tipifarnib + Trametinib; first compound 0.3162 µM): 0.547 | relative viability (Tipifarnib + Trametinib; first compound 1 µM): 0.65 | relative viability (Tipifarnib + OSI-027; first compound 0.01 µM): 0.634 | relative viability (Tipifarnib + OSI-027; first compound 0.03162 µM): 0.542 | relative viability (Tipifarnib + OSI-027; first compound 0.1 µM): 0.631 | relative viability (Tipifarnib + OSI-027; first compound 0.3162 µM): 0.564 | relative viability (Tipifarnib + OSI-027; first compound 1 µM): 0.448 | relative viability (Tipifarnib + Phenformin; first compound 0.01 µM): 0.676 | relative viability (Tipifarnib + Phenformin; first compound 0.03162 µM): 0.649 | relative viability (Tipifarnib + Phenformin; first compound 0.1 µM): 0.491 | relative viability (Tipifarnib + Phenformin; first compound 0.3162 µM): 0.487 | relative viability (Tipifarnib + Phenformin; first compound 1 µM): 0.399

NCI-H2347
relative viability (Tipifarnib; 0.01 µM): 0.831 | relative viability (Tipifarnib; 0.03162 µM): 0.89 | relative viability (Tipifarnib; 0.1 µM): 0.735 | relative viability (Tipifarnib; 0.3162 µM): 0.676 | relative viability (Tipifarnib; 1 µM): 0.691 | relative viability (Tipifarnib + Trametinib; first compound 0.01 µM): 0.308 | relative viability (Tipifarnib + Trametinib; first compound 0.03162 µM): 0.283 | relative viability (Tipifarnib + Trametinib; first compound 0.1 µM): 0.269 | relative viability (Tipifarnib + Trametinib; first compound 0.3162 µM): 0.261 | relative viability (Tipifarnib + Trametinib; first compound 1 µM): 0.293 | relative viability (Tipifarnib + OSI-027; first compound 0.01 µM): 0.479 | relative viability (Tipifarnib + OSI-027; first compound 0.03162 µM): 0.368 | relative viability (Tipifarnib + OSI-027; first compound 0.1 µM): 0.411 | relative viability (Tipifarnib + OSI-027; first compound 0.3162 µM): 0.259 | relative viability (Tipifarnib + OSI-027; first compound 1 µM): 0.334 | relative viability (Tipifarnib + Phenformin; first compound 0.01 µM): 0.474 | relative viability (Tipifarnib + Phenformin; first compound 0.03162 µM): 0.405 | relative viability (Tipifarnib + Phenformin; first compound 0.1 µM): 0.501 | relative viability (Tipifarnib + Phenformin; first compound 0.3162 µM): 0.318 | relative viability (Tipifarnib + Phenformin; first compound 1 µM): 0.315

NCI-H2405
relative viability (Tipifarnib; 0.01 µM): 1.03 | relative viability (Tipifarnib; 0.03162 µM): 0.984 | relative viability (Tipifarnib; 0.1 µM): 0.928 | relative viability (Tipifarnib; 0.3162 µM): 0.954 | relative viability (Tipifarnib; 1 µM): 0.735 | relative viability (Tipifarnib + Trametinib; first compound 0.01 µM): 0.7 | relative viability (Tipifarnib + Trametinib; first compound 0.03162 µM): 0.518 | relative viability (Tipifarnib + Trametinib; first compound 0.1 µM): 0.487 | relative viability (Tipifarnib + Trametinib; first compound 0.3162 µM): 0.489 | relative viability (Tipifarnib + Trametinib; first compound 1 µM): 0.582 | relative viability (Tipifarnib + OSI-027; first compound 0.01 µM): 0.673 | relative viability (Tipifarnib + OSI-027; first compound 0.03162 µM): 0.641 | relative viability (Tipifarnib + OSI-027; first compound 0.1 µM): 0.629 | relative viability (Tipifarnib + OSI-027; first compound 0.3162 µM): 0.599 | relative viability (Tipifarnib + OSI-027; first compound 1 µM): 0.474 | relative viability (Tipifarnib + Phenformin; first compound 0.01 µM): 0.384 | relative viability (Tipifarnib + Phenformin; first compound 0.03162 µM): 0.371 | relative viability (Tipifarnib + Phenformin; first compound 0.1 µM): 0.374 | relative viability (Tipifarnib + Phenformin; first compound 0.3162 µM): 0.415 | relative viability (Tipifarnib + Phenformin; first compound 1 µM): 0.361

NCI-H3122
relative viability (Tipifarnib; 0.01 µM): 1.02 | relative viability (Tipifarnib; 0.03162 µM): 0.977 | relative viability (Tipifarnib; 0.1 µM): 0.949 | relative viability (Tipifarnib; 0.3162 µM): 0.704 | relative viability (Tipifarnib; 1 µM): 0.44 | relative viability (Tipifarnib + Trametinib; first compound 0.01 µM): 0.244 | relative viability (Tipifarnib + Trametinib; first compound 0.03162 µM): 0.215 | relative viability (Tipifarnib + Trametinib; first compound 0.1 µM): 0.213 | relative viability (Tipifarnib + Trametinib; first compound 0.3162 µM): 0.211 | relative viability (Tipifarnib + Trametinib; first compound 1 µM): 0.185 | relative viability (Tipifarnib + OSI-027; first compound 0.01 µM): 0.949 | relative viability (Tipifarnib + OSI-027; first compound 0.03162 µM): 0.568 | relative viability (Tipifarnib + OSI-027; first compound 0.1 µM): 0.384 | relative viability (Tipifarnib + OSI-027; first compound 0.3162 µM): 0.233 | relative viability (Tipifarnib + OSI-027; first compound 1 µM): 0.225 | relative viability (Tipifarnib + Phenformin; first compound 0.01 µM): 0.413 | relative viability (Tipifarnib + Phenformin; first compound 0.03162 µM): 0.419 | relative viability (Tipifarnib + Phenformin; first compound 0.1 µM): 0.419 | relative viability (Tipifarnib + Phenformin; first compound 0.3162 µM): 0.356 | relative viability (Tipifarnib + Phenformin; first compound 1 µM): 0.228

PC-3 [JPC-3]
relative viability (Tipifarnib; 0.01 µM): 0.981 | relative viability (Tipifarnib; 0.03162 µM): 0.977 | relative viability (Tipifarnib; 0.1 µM): 0.979 | relative viability (Tipifarnib; 0.3162 µM): 0.754 | relative viability (Tipifarnib; 1 µM): 0.576 | relative viability (Tipifarnib + Trametinib; first compound 0.01 µM): 0.726 | relative viability (Tipifarnib + Trametinib; first compound 0.03162 µM): 0.61 | relative viability (Tipifarnib + Trametinib; first compound 0.1 µM): 0.531 | relative viability (Tipifarnib + Trametinib; first compound 0.3162 µM): 0.494 | relative viability (Tipifarnib + Trametinib; first compound 1 µM): 0.478 | relative viability (Tipifarnib + OSI-027; first compound 0.01 µM): 0.751 | relative viability (Tipifarnib + OSI-027; first compound 0.03162 µM): 0.67 | relative viability (Tipifarnib + OSI-027; first compound 0.1 µM): 0.598 | relative viability (Tipifarnib + OSI-027; first compound 0.3162 µM): 0.343 | relative viability (Tipifarnib + OSI-027; first compound 1 µM): 0.324 | relative viability (Tipifarnib + Phenformin; first compound 0.01 µM): 0.513 | relative viability (Tipifarnib + Phenformin; first compound 0.03162 µM): 0.44 | relative viability (Tipifarnib + Phenformin; first compound 0.1 µM): 0.458 | relative viability (Tipifarnib + Phenformin; first compound 0.3162 µM): 0.399 | relative viability (Tipifarnib + Phenformin; first compound 1 µM): 0.377

— the supplement of paper PMC10307832
